Measurements taken from patent US8173697B2, “Alkoxyalkyl-substituted cyclic keto-enols” (Bayer CropScience AG, priority 2006, dated 2012).

Tests used:
Type in all cases: in vivo
Myzus persicae = Myzus persicae test, activity boost through ammonium/phosphonium salts and penetration promoters (Example 11)
Method: For application with ammonium salts or phosphonium salts and penetration promoters (rapeseed oil methyl ester 500 EW) these are in each case added in a concentration of 1000 ppm to the spray liquor.
(§1) After the desired time the destruction in % is determined.

Aphis gossypii = Aphis gossypii test (Example 12); settings: for Destruction (%) after 6 d: no additive
Method: For application with ammonium salts or phosphonium salts and penetration promoters (rapeseed oil methyl ester 500 EW) these are in each case added in a concentration of 1000 ppm a.i. to the spray liquor.
as §1

Maize - Arsenal = assay: Greenhouse container trials with maize, pre-emergence, with and without safener; settings: 28 days after application
From the text: Seeds of monocotyledonous and dicotyledonous weed plants and crop plants are placed in sandy loam soil in wood fibre pots or in plastic pots and are covered with earth. The test compounds, formulated as wettable powders (WP) or liquids (EC), are sprayed onto the soil surface in various dosages, with a water application rate of 300 l/ha (converted). The pots are then placed in a greenhouse under good growth conditions, and also, during the vegetation period, are placed outdoors, outside of the greenhouse, so that the plants are able to germinate and develop. 3 to 4 weeks after the trial plants have been treated, the effect of the products is rated visually in comparison to untreated controls (herbicidal effect in percent: 100% effect=plants have died, 0% effect=like control plants).
(§2) If the testing is also to look at whether safeners can improve the tolerance of the crop plants for test substances, the following options are used for the application of the safener: • seeds of the crop plants are dressed with the safener substance prior to sowing (the amount of safener is stated as a percentage, based on the seed weight) • pots containing the crop plants are sprayed with the safener, with a defined application rate per hectare, prior to application of the test substances • the safener is applied together with the test substance in the form of a tank mix (the amount of safener is reported in g/ha or as a proportion relative to the herbicide).
(§3) By comparing the effect of test substances on crop plants which have been treated with safener and without safener it is possible to assess the effect of the safener substance.

Spring barley = assay: Greenhouse container trials with cereals, post-emergence, with and without safener
Method: (§4) Seeds of monocotyledonous and dicotyledonous weed plants and crop plants are placed in sandy loam soil in wood fibre pots or in plastic pots and are covered with earth and cultivated in a greenhouse and also, during the vegetation period, outdoors, outside of the greenhouse, under good growth conditions. 2 to 3 weeks after sowing, the trial plants are treated at the one- to three-leaf stage. The test compounds, formulated as wettable powders (WP) or liquids (EC), are sprayed onto the plants and the soil surface in various dosages, with a water application rate of 300 l/ha (converted) and with addition of wetting agent (0.2% to 0.3%). […]
as §2, with “weight) • crop plants” for “weight) • pots containing the crop plants”, “test substances (typically 1 day before the test substances are applied) • the” for “test substances • the”
as §3

Spring wheat = assay: as above; settings: 10 days after application
Method: as §4
as §2, with “weight) • crop plants” for “weight) • pots containing the crop plants”, “test substances (typically 1 day before the test substances are applied) • the” for “test substances • the”
as §3

[1] = 20 ppm, no additive, bell pepper plants

SMILES: COCC1(C)NC(=O)C(c2cc(-c3ccc(Cl)cc3)ccc2C)=C1O (stereo not shown) [I-a-1]
- Destruction (%) after 6 d (Myzus persicae; 4 ppm, +AS 1000 ppm): 0%
- Destruction (%) after 6 d (Myzus persicae; 4 ppm, +AS +RME 1000 ppm each): 75%
- Destruction (%) after 6 d (Myzus persicae; 4 ppm, +RME 1000 pm): 35%
- Destruction (%) after 6 d (Myzus persicae; 4 ppm, no additive, bell pepper plants): 0%
- Destruction (%) after 6 d (Myzus persicae; 20 ppm, +AS 1000 ppm): 65%
- Destruction (%) after 6 d (Myzus persicae; 20 ppm, +AS +RME 1000 ppm each): 99%
- Destruction (%) after 6 d (Myzus persicae; 20 ppm, +RME 1000 pm): 98%
- Destruction (%) after 6 d (Myzus persicae; [1]): 0%
- Destruction (%) after 6 d +AS 1000 ppm (Aphis gossypii; 20 ppm active compound): 20%
- Destruction (%) after 6 d +AS +RME 1000 ppm each (Aphis gossypii; 20 ppm active compound): 85%
- Destruction (%) after 6 d +RME 1000 pm (Aphis gossypii; 20 ppm active compound): 5%
- Destruction (%) after 6 d (Aphis gossypii; 20 ppm active compound): 5%
- Destruction (%) after 6 d +AS 1000 ppm (Aphis gossypii; 100 ppm active compound): 90%
- Destruction (%) after 6 d +AS +RME 1000 ppm each (Aphis gossypii; 100 ppm active compound): 90%
- Destruction (%) after 6 d +RME 1000 pm (Aphis gossypii; 100 ppm active compound): 90%
- Destruction (%) after 6 d (Aphis gossypii; 100 ppm active compound): 60%

SMILES: COCC1(C)NC(=O)C(c2c(C)ccc(-c3ccc(Cl)cc3)c2C)=C1O (stereo not shown) [I-a-7]
- Destruction (%) after 6 d +AS 1000 ppm (Aphis gossypii; 20 ppm active compound): 10%
- Destruction (%) after 6 d +AS +RME 1000 ppm each (Aphis gossypii; 20 ppm active compound): 90%
- Destruction (%) after 6 d +RME 1000 pm (Aphis gossypii; 20 ppm active compound): 70%
- Destruction (%) after 6 d (Aphis gossypii; 20 ppm active compound): 5%

SMILES: COCC1(C)NC(=O)C(c2cc(-c3ccc(F)cc3)ccc2C)=C1O (stereo not shown) [I-a-12]
- Destruction (%) after 6 d (Myzus persicae; 20 ppm, +AS 1000 ppm): 0%
- Destruction (%) after 6 d (Myzus persicae; 20 ppm, +AS +RME 1000 ppm each): 99%
- Destruction (%) after 6 d (Myzus persicae; 20 ppm, +RME 1000 pm): 45%
- Destruction (%) after 6 d (Myzus persicae; [1]): 10%
- Destruction (%) after 6 d (Myzus persicae; 100 ppm, +AS 1000 ppm): 98%
- Destruction (%) after 6 d (Myzus persicae; 100 ppm, +AS +RME 1000 ppm each): 99%
- Destruction (%) after 6 d (Myzus persicae; 100 ppm, +RME 1000 pm): 99%
- Destruction (%) after 6 d (Myzus persicae; 100 ppm, no additive, bell pepper plants): 85%

SMILES: CCc1cc(-c2ccc(Cl)cc2)cc(CC)c1C1=C(OC(=O)C(C)C)C(C)(COC)NC1=O (stereo not shown) [I-b-2]
- Maize - Arsenal observed (%) (Maize - Arsenal; 25 g a.i./ha): 40%
- Maize - Arsenal observed (%) (Maize - Arsenal; 50 g a.i./ha): 50%

SMILES: CCc1cc(-c2ccc(C)cc2)cc(C)c1C1=C(OC(=O)C(C)C)C(C)(COC)NC1=O (stereo not shown) [I-b-5]
- Spring barley observed (%) (Spring barley; 25 g a.i./ha, 28 days after application): 10%
- Spring barley observed (%) (Spring barley; 50 g a.i./ha, 10 days after application): 50%
- Spring barley observed (%) (Spring barley; 100 g a.i./ha, 10 days after application): 65%
- Spring barley observed (%) (Spring barley; 100 g a.i./ha, 28 days after application): 30%
- Spring wheat observed (%) (Spring wheat; 50 g a.i./ha): 10%
- Spring wheat observed (%) (Spring wheat; 100 g a.i./ha): 15%

SMILES: CCOC(=O)OC1=C(c2c(C)cc(-c3ccc(Cl)cc3)cc2CC)C(=O)NC1(C)COC (stereo not shown) [I-c-1]
- Maize - Arsenal observed (%) (Maize - Arsenal; 50 g a.i./ha): 55%
